Measurements: US12180523B2, “Southern green stink bug pheromone synthesis enzymes and uses thereof” (VIRGINIA TECH INTELLECTUAL PROPERTIES, INC., priority 2018, dated 2024)

Legend:
[1] = target: T1, recombinant NvIDS1 (NvTPS) protein (Nezara viridula, UniProt A0A386JV86); assay: TPS activity assay of purified recombinant NvTPS, products by GC-MS; format: biochemical, N. viridula; settings: 50 μM allylic substrate, 30° C., 1 h
T1 construct: Full-length NvTPS (NvIDS1) cDNA was cloned into the pEXP5-NT/TOPO (Invitrogen) expression vector; His tag (N-terminal histidine fusion tag from pEXP5-NT/TOPO) (N); made in house; host or cells: E. coli BL21(DE3)pLysS
T1 sequence (A0A386JV86 1-378): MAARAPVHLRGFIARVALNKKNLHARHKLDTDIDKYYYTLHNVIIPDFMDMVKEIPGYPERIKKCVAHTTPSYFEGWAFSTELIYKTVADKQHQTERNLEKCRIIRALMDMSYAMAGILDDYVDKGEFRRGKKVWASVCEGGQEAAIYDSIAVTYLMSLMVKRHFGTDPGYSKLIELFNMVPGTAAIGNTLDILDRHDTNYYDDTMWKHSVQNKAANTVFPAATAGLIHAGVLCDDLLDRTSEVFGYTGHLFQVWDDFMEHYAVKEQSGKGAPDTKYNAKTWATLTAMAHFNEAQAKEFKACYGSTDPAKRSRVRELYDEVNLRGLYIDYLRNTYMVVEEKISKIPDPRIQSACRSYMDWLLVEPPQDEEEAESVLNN
Method: Heterologous Expression of Recombinant NvTPS.
TPS activity of purified, recombinant NvTPS protein was determined in assay buffer (see above) with 1 mM DTT and 50 μM allylic substrate [(E,E)-, (Z,E)- or (Z,Z)-FPP] in a total volume of 100 μl and with a100 μl hexane overlay. Upon incubation at 30° C. for 1 h, assays were stopped on ice and compounds extracted by mixing using a vortex at maximum speed for 15 s. Phases were separated by centrifuging at 4000×g for 10 min and the hexane phase was removed and dried over MgSO4. One μL of the hexane extract was analyzed by GC-MS.
Gas Chromatography-Mass Spectrometry Analysis and Determination of Absolute Configuration of NvTPS Products. GC-MS analysis of hexane extracts from assays with crude protein lysates or NvTPS recombinant protein was performed using split injection (5:1 ratio) at an injection temperature of 240° C. Compounds were separated on a GC-2010 gas chromatograph (Shimadzu, Kyoto, Japan) with a 30 m×0.25 mm i.d.×0.25 μm film Zebron ZB-XLB column (Phenomenex, Torrance, CA) coupled to a QP2010S mass spectrometer (Shimadzu). Separation steps were as follows: initial 2 min hold at 40° C., followed by a 5° C./min ramp to 220° C., then a 70° C./min ramp to 240° C. followed by a 2 min hold time at 240° C. Mass spectrometry was performed with a 240° C. ion source temperature, 280° C. interface temperature, electron ionization (El) potential of 70 eV, and scan range of 50 to 400 amu. Helium was used as a carrier gas at 1.9 ml/min.

[2] = target: recombinant NvIDS2 (NvFPPS) (Nezara viridula, UniProt A0A386JVA3); settings: 50 μM IPP and 50 μM DMAPP, 30° C., 2 h, LC-MS
Method: In preparation for enzyme assays, a buffer exchange to 25 mM 3-(N-morpholino)-2-hydroxypropanesulfonic acid (MOPSO, pH 7.2, 10% [v/v] glycerol, 1 mM DTT, 5 mM MgCl2) was conducted on PD-10 Desalting Columns (GE Healthcare Life Sciences, Pittsburgh, PA).
(§1) IDS Activity Assay and Analysis. […] Upon incubation at 30° C. for 2 h, IDS enzyme products were analyzed on an Agilent 1260 HPLC system (Agilent Technologies) coupled to an API 5000 triple-quadrupole mass spectrometer (AB Sciex Instruments) following the protocol described by Beran et al. 2016.

[3] = target: NvIDS1 (NvTPS) (Nezara viridula, UniProt A0A386JV86); settings: IPP and DMAPP as substrates
Method: Full-length NvTPS (NvIDS1) cDNA was cloned into the pEXP5-NT/TOPO (Invitrogen) expression vector as described above and transformed into E. coli BL21(DE3)pLysS cells. Single colonies were selected at 18° C. on LB with ampicillin (100 μg/ml) and chloramphenicol (34 μg/ml). Expression cultures (200 ml of the same medium) were started from 5 ml overnight cultures and incubated at 18° C. for 4-8h. Following induction at an OD600 of 0.50 with 0.5 mM IPTG, cells were cultivated for another 48 h, then washed in 100 ml wash buffer (20 mM Tris-HCl, 50 mM KCl, pH 7), pelleted, and resuspended in 15 ml cell lysis buffer (50 mM NaH2PO4, 300 mM NaCl, 5 mM imidazole, 0.5 mM PMSF, 2 mM DTT, pH 8). Upon sonication for 2×30 s (on ice, 1 min interval, 20% amplitude, Branson Digital Sonifier), the recombinant protein was purified with Ni-NTA agarose (Qiagen) using three washes of 30 mM imidazole and elution as a 1 ml fraction with 250 mM imidazole. Buffer exchange into TPS assay buffer (25 mM HEPES, 10 mMMgCl2,10% glycerol, pH 7) was performed on PD MiniTrap G-25 desalting columns (GE Healthcare Life Sciences).
as §1

[4] = system: crude protein extract from whole male and female bugs; assay: Enzyme activity in crude protein extract from whole bugs; format: biochemical, N. viridula; settings: supernatant of homogenized male and female bugs incubated with (E,E)-FPP
Method: Enzyme Activity in Crude Protein Assay. Enzyme activity was measured in crude protein extract from whole male and female bugs to determine possible products from enzymes that accept (E,E)-FPP. The supernatant from homogenized bugs was incubated with the substrate and analyzed products extracted by hexane using GC-MS. […] Also, several sesquiterpenes were found in low abundance that were not found in assays of partially purified NvTPS.

[5] = target: T2, NvTPS (Nezara viridula, UniProt A0A386JV86); assay: Kinetic analysis of NvTPS with [1-3H]-(E,E)-FPP; format: biochemical, N. viridula; settings: (E,E)-FPP as the substrate
T2 construct: Full-length NvTPS (NvIDS1) cDNA was cloned into the pEXP5-NT/TOPO (Invitrogen) expression vector; His tag (N-terminal histidine fusion tag from pEXP5-NT/TOPO) (N); made in house; host or cells: E. coli BL21(DE3)pLysS
T2 sequence (A0A386JV86 1-378): T1 sequence (A0A386JV86 1-378)
Method: To determine the apparent Km value of NvTPS for (E,E)-FPP, […] of recombinant protein was incubated with increasing concentrations of [1-3H]-(E,E)-FPP (64 ρCi mmol-1) in a total volume of […]. Assays were incubated at 30° C. for 5 min prior to extraction of the enzyme product with 250 μl hexane. Assays were performed in triplicate. Quantification of the radioactive product was as described by Tholl et al. (2005. Plant. J. 42:757-771). The Km value was calculated by rectangular hyperbolic regression analysis using Hyperbolic Regression Analysis software (HYPER 1.01) (J. S. Easterby, University of Liverpool).

[6] = system: crude protein extracts from tissue associated with the ventral sternites of N. viridula; assay: Terpene synthase activity in crude protein extracts of abdominal cuticle tissue; format: biochemical; settings: 50 μM (E,E)-FPP, 12 h, 30° C.
Method: Crude Protein Extracts of N. viridula. Abdominal cuticles from one mature (14-15 days post molt) adult male and female N. viridula were used for crude protein assays. Insects were fixed with hexane vapor in a screw top jar and dissected in phosphate buffered saline (PBS) (137 mM NaCl, 8.1 mM Na2HPO4, 1.5 mM NaH2PO4, 2.7 mM KCl, pH 7.2). Head, thorax and abdominal soft tissues were removed except for epithelial cells lining the cuticle. Abdominal cuticles were then frozen in liquid nitrogen, pulverized with a mortar and pestle, and suspended in assay buffer (25 mM HEPES, 5 mM MgCl2, 10% glycerol, 1 mM DTT, pH 7). Protein concentrations were determined with a Bradford Assay (Bio-Rad, Hercules, CA) according to the manufacturer's protocol resulting in a protein concentration of 1.2 μg/μl and 0.8 μg/μl for female and male tissue, respectively.
TPS Activity Assay. To determine terpene synthase activity in crude protein extracts of male and female abdominal cuticle tissue, 50 μM (E,E)-FPP was added to protein extracts in assay buffer (see above) containing 50 µg protein at a final volume of 200 μl and with a 200 μl hexane overlay to collect volatiles. Following incubation for 12 h at 30° C., enzyme products were extracted by mixing for 15 s using a vortex and phases were separated by centrifuging at 4000×g for 10 min. One μl of the hexane extract was analyzed by GC-MS. […]

recombinant NvIDS2 (NvFPPS), sequence (A0A386JVA3 whole entry): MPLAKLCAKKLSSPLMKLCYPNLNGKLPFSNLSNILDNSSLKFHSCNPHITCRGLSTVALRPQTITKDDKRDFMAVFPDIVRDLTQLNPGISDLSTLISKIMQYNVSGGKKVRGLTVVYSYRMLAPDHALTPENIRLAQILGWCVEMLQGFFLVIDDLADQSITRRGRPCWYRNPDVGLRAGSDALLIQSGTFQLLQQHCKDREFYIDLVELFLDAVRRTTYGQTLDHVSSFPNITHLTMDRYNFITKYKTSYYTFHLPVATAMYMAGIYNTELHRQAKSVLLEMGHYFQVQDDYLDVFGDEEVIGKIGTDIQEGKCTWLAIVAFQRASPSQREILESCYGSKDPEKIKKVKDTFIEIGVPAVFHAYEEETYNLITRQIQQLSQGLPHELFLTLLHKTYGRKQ

## CC(C)=CCC/C(C)=C/CC/C(C)=C\COP(=O)(O)OP(=O)(O)O [(Z,E)-FPP]
[1]
  enzymatic products of NvIDS1 (TPS activity): No enzymatic products were detected

## CC(C)=CCC/C(C)=C\CC/C(C)=C\COP(=O)(O)OP(=O)(O)O [(Z,Z)-FPP]
[1]
  enzymatic products of NvIDS1 (TPS activity): No enzymatic products were detected

## isopentenyl diphosphate [IPP]
[2]
  IDS product of NvIDS2: (E,E)-FPP as the sole product
[3]
  IDS activity of NvIDS1: no activity was observed

## CC(C)=CCC/C(C)=C/CC/C(C)=C/COP(=O)(O)OP(=O)(O)O [(E,E)-FPP, (E,E)-farnesyl diphosphate]
[4]
  products in crude protein extract from whole bugs, GC-MS: (Z)-α-bisabolene present in crude protein from males but not females
[5]
  Vmax: 11.83±2.14 pkat/mg
[5]; 30° C., 5 min, triplicate, read-out: apparent Km value
  Km: 0.95 ± 0.37 µM
[6]; extracts from mature females
  TPS activity in crude protein extract, products by GC-MS: only little activity
[6]; extracts from mature males
  TPS activity in crude protein extract, products by GC-MS: formation of (Z)-α-bisabolene
[1]
  enzymatic products of NvIDS1 (TPS activity): (Z)-α-bisabolene as the main product
